Test system: PR/SET domain 16 (PRDM16)
Assay: qPCR expression of thermogenesis gene PRDM16 in brown adipose tissue
Format: in vivo, C57BL6 mice
Conditions: mRNA, brown adipose tissue (BAT), high-fat diet mice; compared to HFD group
Protocol: Five-week-old male C57BL6 mice were purchased and acclimated for one week. Then, the mice in each group (n=10) were fed a low-fat diet or high-fat diet. After first allowing them to consume a low-fat diet or high-fat diet for a week, the mice in each group were orally administered with Lactobacillus plantarum HAC03, quercetin, or rutin once a day for 14 weeks.
Then, the expression levels of lipogenesis-related genes were measured at the mRNA level through qPCR.
Specifically, the colons of mice in each experimental group were homogenized, dissolved in Trizol® (RNA extraction buffer, Thermo Fisher), and RNA was extracted according to the protocol provided by the manufacturer. The extracted RNA was quantified, and an equal amount of RNA was synthesized into cDNA by reverse transcription using the SuperiorScript III cDNA synthesis Kit (Enzynomics, Daejeon, South Korea). Thereafter, real-time PCR was performed using each gene-specific primer in Table 3, TOPreal qPCR 2X premix (SYBR Green with high ROX) (Enzynomics, Daejeon, South Korea), and cDNA. Real-time PCR was performed using the ABI 7500 Fast Real time PCR system (Applied Biosystems, Waltham, MA, USA). The relative gene expression levels were calculated using the ÄÄCt method.

Compound: O=c1c(O)c(-c2ccc(O)c(O)c2)oc2cc(O)cc(O)c12 [Q, Quercetin]
- expression level of PRDM16: increased
